#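 Five compound concentrations were applied to cells in 96-well plates for 48 hours; endpoints were derived by simple linear interpolation of the resulting dose-response curve. Here, GI50 denotes the concentration required for 50% inhibition of growth. At the TGI there is no net growth.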
# Tested on: M19-MEL melanoma
# Assay: inhibition of tumour cell growth, NCI panel, 48 h
Compound,TGI,GI50
C/C(N=NC(=S)N1CC2CCC(CC2)C1)=C1\C=CC=CN1O,23.3 µM,–
CCOC(=O)c1ccc(/C(C)=N/NC(N)=S)cc1,> 100 µM,–
c1ccc2c(OCCSCCCCCCCCCCSCCOc3cccc4ccccc34)cccc2c1,> 100 µM,–
Cc1cc2c(=O)c3ccccc3[nH]c2c(C(N)=O)c1C,> 100 µM,–
CCC[CH2][Sn]([CH2]CCC)([O]C(=O)c1ccc(OC)c(OC)c1OC)[O][Sn]([CH2]CCC)([CH2]CCC)[O]C(=O)c1ccc(OC)c(OC)c1OC,1.05 µM,0.21 µM
CN1CCC(=O)/C(=C/c2ccccc2)C1,18.4 µM,–

# Tested on: MDA-MB-435
# Assay: inhibition of tumour cell growth, NCI panel, 48 h
Compound,TGI,GI50
NS(=O)(=O)c1ccc(N=Nc2c(O)c(C(=O)O)cc3ccccc23)cc1,> 100 µM,–
Cc1c(N(C)C)ccc2c(=O)c3cccc(CC(=O)O)c3oc12,> 100 µM,–
CC(NCCC(c1ccccc1)c1ccccc1)c1ccccc1 (stereo not drawn),7.76 µM,2.54 µM
C/C(N=NC(=S)N1CC2CCC(CC2)C1)=C1\C=CC=CN1O,> 100 µM,–
O=C(Nc1ccc(Br)cc1F)c1cc(Cl)ccc1O,5.88 µM,0.71 µM
NC(N)=N/N=C/c1c(Cl)cccc1Cl,31.1 µM,15.3 µM
O=C(Nc1cccc(C(F)(F)F)c1)c1ccc(NC2=C(Cl)C(=O)N(Cc3ccc(Cl)cc3Cl)C2=O)cc1,32.4 µM,16.1 µM
CCC[CH2][Sn]([CH2]CCC)([O]C(=O)c1ccc(OC)c(OC)c1OC)[O][Sn]([CH2]CCC)([CH2]CCC)[O]C(=O)c1ccc(OC)c(OC)c1OC,1.9 µM,0.579 µM

# Tested on: SF-539 CNS
# Assay: inhibition of tumour cell growth, NCI panel, 48 h
Compound,TGI,GI50
COC(=O)C(=Cc1cc(OC)c(OC)c(OC)c1-c1cc2c(cc1C1(C)OCCS1)OCO2)C(=O)OC (stereo not drawn),> 100 µM,–
C#CC1/C(=C\C(=O)OC)CCCC1O (stereo not drawn),> 100 µM,–
CC12CCC(=O)C[C@H]1CCC(OC=O)C2Br (stereo partly drawn),> 100 µM,–
COc1ccc(OCC(=O)O)c2c1CCCC2=O,> 100 µM,–
Cc1nc(Nc2ccc(Cl)cc2)sc1C(=O)NNC(=S)NN,31.8 µM,–
CCOC(=O)N[C@H]1CCc2cc(OC)c(OC)c(OC)c2-c2ccc(SC)c(=O)cc21,< 0.01 µM,–
COc1ccc2c(c1OCC(=O)O)C(=O)C(CCC(=O)O)CC2 (stereo not drawn),> 100 µM,–
Cc1ccc2nc(/C(=C/c3ccc(/C=C(\NC(=O)c4ccccc4)c4nc5ccc(C)cc5[nH]4)c(C)c3)NC(=O)c3ccccc3)[nH]c2c1,28.9 µM,–
COC1C(OC(=S)Nc2ccccc2)c2ccccc2N1C(C)=O (stereo not drawn),> 100 µM,–
CC1=Cc2cccc(C)c2C(=O)C1=O,15.5 µM,–
Cc1ccc(C)c(NC(=O)c2cccc([N+](=O)[O-])c2O)c1,> 100 µM,–
COCC(OC)C(CC=C(C#N)C#N)OC (stereo not drawn),> 100 µM,–
On1c(-c2ccccc2)c(-c2ccccc2N2CCCC2)c2ccccc21,> 100 µM,–
N#CC(C(=O)/C(=N\NC(N)=O)C(C#N)c1ccc(Cl)cc1)c1ccc(Cl)cc1 (stereo not drawn),> 100 µM,–
CC(C)(C)c1cc(C(P(=O)(O)O)P(=O)(O)O)cc(C(C)(C)C)c1O,> 100 µM,–
CC(C)C1=Cc2ccc3c(c2C(=O)C1=O)CCCC3(C)C,11 µM,–
CSc1nc(SC)c2c(C#N)[nH]nc2n1,> 100 µM,–
COc1c(O)c2c(=O)cc3c4c5c(cc(=O)c6c(O)c(OC)c(CC(C)O)c(c(c1CC(C)O)c24)c65)OCO3 (stereo not drawn),4.31 µM,–
COc1ccc(CCN(C)C2CCC(C#N)(c3ccc(OC)c(OC)c3)CC2)cc1OC (stereo not drawn),> 100 µM,–
NS(=O)(=O)c1ccc(N=Nc2c(O)c(C(=O)O)cc3ccccc23)cc1,> 100 µM,–

Compound,TGI,GI50
Cc1c(N(C)C)ccc2c(=O)c3cccc(CC(=O)O)c3oc12,> 100 µM,–
CCOC(=O)c1nc2c(OC)nn(O)cc-2c1[N+](=O)[O-],73.3 µM,–
C/C(CC(=O)Nc1ccc(C)c(C)c1)=N\N(c1ccccc1)c1ccccc1,> 100 µM,–
COC(=O)/C(=N\NC(N)=S)C(C(=O)OC)C(=O)C(=O)Nc1ccc(C)cc1 (stereo not drawn),> 100 µM,–
O=C(OC1CCC(=C2SCCCS2)[C@H]1C1SCCCS1)c1ccccc1 (stereo partly drawn),> 100 µM,–
O=C1CCC2(c3ccc(Cl)cc3)Nc3cc(Cl)ccc3N12 (stereo not drawn),7.32 µM,–
CC(NCCC(c1ccccc1)c1ccccc1)c1ccccc1 (stereo not drawn),9.01 µM,2.92 µM
O=C(/C(=C/c1ccc(Cl)cc1)c1ccccc1)c1ccccc1,31.3 µM,–
CC1(C)COC(c2cccc3c2C(=O)c2cccc(Cl)c2-3)=N1,> 100 µM,–
CN(C)CCC(/C=C/c1ccccc1)=N\Nc1ccccc1,4.02 µM,–
C/C(N=NC(=S)N1CC2CCC(CC2)C1)=C1\C=CC=CN1O,31 µM,–
CCOC(=O)c1ccc(/C(C)=N/NC(N)=S)cc1,> 100 µM,–
c1ccc2c(OCCSCCCCCCCCCCSCCOc3cccc4ccccc34)cccc2c1,> 100 µM,–
O=C(Nc1ccc(Br)cc1F)c1cc(Cl)ccc1O,5.85 µM,0.594 µM
NC(N)=N/N=C/c1c(Cl)cccc1Cl,> 100 µM,23.7 µM
Cc1cc2c(=O)c3ccccc3[nH]c2c(C(N)=O)c1C,> 100 µM,–
O=C(Nc1cccc(C(F)(F)F)c1)c1ccc(NC2=C(Cl)C(=O)N(Cc3ccc(Cl)cc3Cl)C2=O)cc1,21.5 µM,8.06 µM
CCC[CH2][Sn]([CH2]CCC)([O]C(=O)c1ccc(OC)c(OC)c1OC)[O][Sn]([CH2]CCC)([CH2]CCC)[O]C(=O)c1ccc(OC)c(OC)c1OC,0.94 µM,0.36 µM
CN1CCC(=O)/C(=C/c2ccccc2)C1,33.3 µM,–

# Tested on: SN12C renal
# Assay: inhibition of tumour cell growth, NCI panel, 48 h
Compound,TGI,GI50
COC(=O)C(=Cc1cc(OC)c(OC)c(OC)c1-c1cc2c(cc1C1(C)OCCS1)OCO2)C(=O)OC (stereo not drawn),> 100 µM,–
C#CC1/C(=C\C(=O)OC)CCCC1O (stereo not drawn),> 100 µM,–
CC12CCC(=O)C[C@H]1CCC(OC=O)C2Br (stereo partly drawn),> 100 µM,–
COc1ccc(OCC(=O)O)c2c1CCCC2=O,> 100 µM,–
Cc1nc(Nc2ccc(Cl)cc2)sc1C(=O)NNC(=S)NN,34.3 µM,–
CCOC(=O)N[C@H]1CCc2cc(OC)c(OC)c(OC)c2-c2ccc(SC)c(=O)cc21,> 100 µM,< 0.01 µM
COc1ccc2c(c1OCC(=O)O)C(=O)C(CCC(=O)O)CC2 (stereo not drawn),> 100 µM,–
Cc1ccc2nc(/C(=C/c3ccc(/C=C(\NC(=O)c4ccccc4)c4nc5ccc(C)cc5[nH]4)c(C)c3)NC(=O)c3ccccc3)[nH]c2c1,30.1 µM,–
COC1C(OC(=S)Nc2ccccc2)c2ccccc2N1C(C)=O (stereo not drawn),> 100 µM,–
O=C(Nc1cccc(Cl)c1)C(=O)C(C(=O)c1ccc2ccccc2c1)C1OC(=O)c2ccccc21 (stereo not drawn),51 µM,–
CC1=Cc2cccc(C)c2C(=O)C1=O,37.2 µM,–
Cc1ccc(C)c(NC(=O)c2cccc([N+](=O)[O-])c2O)c1,> 100 µM,–
COCC(OC)C(CC=C(C#N)C#N)OC (stereo not drawn),> 100 µM,–
On1c(-c2ccccc2)c(-c2ccccc2N2CCCC2)c2ccccc21,> 100 µM,–
N#CC(C(=O)/C(=N\NC(N)=O)C(C#N)c1ccc(Cl)cc1)c1ccc(Cl)cc1 (stereo not drawn),> 100 µM,–
CC(C)C1=Cc2ccc3c(c2C(=O)C1=O)CCCC3(C)C,13.9 µM,–
CSc1nc(SC)c2c(C#N)[nH]nc2n1,> 100 µM,–
COc1c(O)c2c(=O)cc3c4c5c(cc(=O)c6c(O)c(OC)c(CC(C)O)c(c(c1CC(C)O)c24)c65)OCO3 (stereo not drawn),3.18 µM,–

# Reference: PubChem BioAssay (NCI)
